Experimental data as given in patent publication US11530229B2, “Cyano cyclobutyl compounds for CBL-B inhibition and uses thereof” (Nurix Therapeutics, Inc., priority 2019, dated 2022).

How the values were obtained:
[1] = test system: primary human total T-cells; experiment: T-cell activation, CD25 surface staining, Biological Example 2; assay type: cell-based; conditions: 48 hours, fold change over baseline; for fold induction at 0.3 µM: 0.3 μM inhibitor; for fold induction at 1 µM: 1 μM inhibitor; for fold induction at 3 µM: 3 μM inhibitor
[2] = test system: primary human total T-cells; experiment: T-cell activation, CD25 surface staining, Biological Example 13; assay type: cell-based; conditions: anti-CD3 and anti-CD28 co-stimulation, 48 hours, fold change over baseline, Table 8
[3] = test system: primary human total T-cells; experiment: T-cell activation, IL-2 secretion, Biological Example 13; assay type: cell-based; conditions: 48 hours, fold change over baseline, Table 8; for IL-2 secretion CD3/CD28 0.3 μM / IL-2 secretion CD3/CD28 1 μM: anti-CD3 and anti-CD28 co-stimulation; for IL-2 secretion CD3/CD28 0.3 μM: 0.3 μM inhibitor; for IL-2 secretion CD3/CD28 1 μM / IL-2 secretion CD3 1 μM: 1 μM inhibitor; for IL-2 secretion CD3 1 μM / IL-2 secretion CD3 3 μM: anti-CD3 stimulation alone; for IL-2 secretion CD3 3 μM: 3 μM inhibitor
[4] = test system: primary human total T-cells; experiment: T-cell activation, CD25 surface staining, Biological Example 9; assay type: cell-based; conditions: anti-CD3 and anti-CD28 co-stimulation, 48 hours, fold change over baseline, Table 5
[5] = molecular target: T1, Cbl-b (Homo sapiens (Human), UniProt Q13191); experiment: Cbl-b displacement assay (Cbl-b inhibition assay), Biological Example 12; assay type: binding; conditions: Table 7
T1 sequence (Q13191 36-427): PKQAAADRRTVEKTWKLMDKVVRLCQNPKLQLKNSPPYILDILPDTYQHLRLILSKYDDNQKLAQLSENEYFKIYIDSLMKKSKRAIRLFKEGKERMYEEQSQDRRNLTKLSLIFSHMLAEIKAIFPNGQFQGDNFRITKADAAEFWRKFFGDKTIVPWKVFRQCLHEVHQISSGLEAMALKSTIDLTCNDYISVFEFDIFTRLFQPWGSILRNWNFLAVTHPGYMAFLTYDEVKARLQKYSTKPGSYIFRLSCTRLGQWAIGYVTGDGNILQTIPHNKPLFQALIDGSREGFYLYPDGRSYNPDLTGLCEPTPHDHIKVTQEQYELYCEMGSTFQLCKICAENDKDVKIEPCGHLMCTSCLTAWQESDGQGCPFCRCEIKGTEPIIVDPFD
Description: (§1) Candidate compounds were evaluated for their ability to bind and inhibit Cbl-b, an E3 ubiquitin-protein ligase, as evidenced by their ability to displace a fluorophore-labeled probe bound to Cbl-b.
(§2) The ability of candidate compounds to displace a known inhibitor and thereby inhibit Cbl-b activity was measured by monitoring the interaction of Cbl-b with a fluorophore-labeled probe in the presence of the candidate compound. A truncated variant of Cbl-b (UniProt number Q13191) containing residues 36-427 and an Avitag at its N-terminus was co-expressed with BirA biotin ligase and purified using a standard protocol (see Dou et al., Nature Structural and Molecular Biology 8: 982-987, 2013; Avidity LLC).
Fluorescently-labeled inhibitor probe was synthesized and tagged with BODIPY FL. Cbl-b displacement assays were performed in a 384-well plate at room temperature in a […] by pre-incubating 0.5 nM Cbl-b or 0.125 nM Cbl-b (final concentration, indicated as “High” and “Low,” respectively) in an assay buffer containing 20 mM HEPES pH 7.5, 150 mM NaCl, 0.01% Triton X-100, 0.01% BSA and 0.5 mM TCEP in the presence of a candidate compound in 1% DMSO (final concentration) for one hour. After incubation in the presence of the candidate compound, the plate was incubated for an additional one hour in the presence of an approximate EC40 binding saturation consisting of 150 nM fluorescently-labeled inhibitor probe and 2 nM Streptavidin-Terbium (Cisbio) (final concentrations). Following the one hour incubation, the plates were read for TR-FRET signal at […] using an Envision plate reader (Perkin Elmer).
(§3) The resulting data for the Cbl-b activity assays were analyzed using standard methods to determine the IC50 values for the tested compounds.

[6] = molecular target: T1, Cbl-b; experiment: Cbl-b displacement assay (Cbl-b inhibition assay), Biological Example 8; assay type: binding; conditions: Table 4
Description: as §1, §2
Fluorescently-labeled inhibitor probe was synthesized and tagged with BODIPY FL. Cbl-b displacement assays were performed in a 384-well plate at room temperature in a […] by pre-incubating 0.5 nM Cbl-b or 0.125 nM Cbl-b (final concentration, indicated as “High” and “Low,” respectively) in an assay buffer containing 20 mM HEPES pH 7.5, 150 mM NaCl, 0.01% Triton X-100, 0.01% BSA, and 0.5 mM TCEP in the presence of a candidate compound in 1% DMSO (final concentration) for 1 hour. After incubation in the presence of the candidate compound, the plate was incubated for an additional one hour in the presence of an approximate EC40 binding saturation consisting of 150 nM fluorescently-labeled inhibitor probe and 2 nM Streptavidin-Terbium (Cisbio) (final concentrations). Following the one hour incubation, the plates were read for TR-FRET signal at […] using an Envision plate reader (Perkin Elmer).
as §3

[7] = test system: primary human total T-cells; experiment: T-cell activation, IL-2 secretion, Biological Example 2; assay type: cell-based; conditions: 48 hours, fold change over baseline; for fold induction at 0.3 µM: 0.3 μM inhibitor; for fold induction at 1 µM: 1 μM inhibitor; for fold induction at 3 µM: 3 μM inhibitor
[8] = molecular target: T1, Cbl-b; experiment: Cbl-b displacement assay (Cbl-b inhibition assay), Biological Example 1; assay type: binding
In short: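 Probe displacement read as TR-FRET (520/620 nm) after 1 h with 2 nM streptavidin-terbium and 150 nM BODIPY FL-labelled inhibitor probe, about EC40. Before that, compound in 1% DMSO sat 1 h at room temperature with N-Avitag biotinylated Cbl-b 36–427, 0.5 nM (High) or 0.125 nM (Low), in pH 7.5 HEPES buffer.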

[9] = test system: primary human total T-cells; experiment: T-cell activation, IL-2 secretion, Biological Example 9; assay type: cell-based; conditions: 48 hours, fold change over baseline, Table 5; for IL-2 secretion CD3/CD28 0.3 μM / IL-2 secretion CD3/CD28 1 μM: anti-CD3 and anti-CD28 co-stimulation; for IL-2 secretion CD3/CD28 0.3 μM: 0.3 μM inhibitor; for IL-2 secretion CD3/CD28 1 μM / IL-2 secretion CD3 1 μM: 1 μM inhibitor; for IL-2 secretion CD3 1 μM / IL-2 secretion CD3 3 μM: anti-CD3 stimulation alone; for IL-2 secretion CD3 3 μM: 3 μM inhibitor
[10] = anti-CD3 and anti-CD28 co-stimulation
[11] = anti-CD3 and anti-CD28 co-stimulation, read-out: CD25 staining CD3/CD28 1 μM
[12] = anti-CD3 stimulation alone, read-out: CD25 staining CD3 1 μM
[13] = 0.5 nM Cbl-b final concentration (High), read-out: Cbl-b IC50 (High)
[14] = anti-CD3 and anti-CD28 co-stimulation, read-out: IL-2 secretion CD3/CD28 1 μM
[15] = anti-CD3 stimulation alone, read-out: IL-2 secretion CD3 1 μM
[16] = 0.125 nM Cbl-b final concentration (Low), read-out: Cbl-b IC50 (Low)
[17] = 0.125 nM Cbl-b final concentration (Low), read-out: Cbl-b activity IC50 (Low)

| Compound | fold induction at 0.3 µM [1, 10] | fold induction at 1 µM [1, 11] | fold induction at 1 µM [1, 12] | fold induction at 3 µM ([1]; anti-CD3 stimulation alone) | IL-2 secretion CD3/CD28 0.3 μM [3] | IL-2 secretion CD3/CD28 1 μM [3] | IL-2 secretion CD3 1 μM [3] | IL-2 secretion CD3 3 μM [3] | fold induction at 0.3 µM [7, 10] | fold induction at 1 µM [7, 14] | fold induction at 1 µM [7, 15] | fold induction at 3 µM ([7]; anti-CD3 stimulation alone) | IL-2 secretion CD3/CD28 0.3 μM [9] | IL-2 secretion CD3/CD28 1 μM [9] | IL-2 secretion CD3 1 μM [9] | IL-2 secretion CD3 3 μM [9] | IC50 [5, 16] [nM] | IC50 [6, 16] [nM] | IC50 [8, 17] [nM] | also measured |
| --- | --- | --- | --- | --- | --- | --- | --- | --- | --- | --- | --- | --- | --- | --- | --- | --- | --- | --- | --- | --- |
| Cc1cc(C(=O)Nc2cccc([C@]3(Cc4nncn4C)C[C@@H](C#N)C3)c2)nc(C2CC2)n1 [Compound 1, N-(3-((1r,3r)-3-cyano-1-((4-methyl-4H-1,2,4-triazol-3-yl)methyl)cyclobutyl)phenyl)-2-cyclopropyl-6-methylpyrimidine-4-carboxamide] | 1.24 to 1.39 | 1.24 to 1.39 | 1 to 1.15 | 1 to 1.15 | C (C indicates ≤10 fold) | B (B indicates 11-15 fold) | B (B indicates 0.34-0.66 fold) | B (B indicates 0.34-0.66 fold) | ≤ 15 | ≤ 15 | < 0.4 | < 0.4 | C (C indicates <10 fold) | B (B indicates 10-15 fold) | B (B indicates 0.34-0.66 fold) | B (B indicates 0.34-0.66 fold) |  |  |  | CD25 staining CD3/CD28 0.3 μM ([2]; 0.3 μM inhibitor): B (B indicates 1.25-1.39 fold); CD25 staining CD3/CD28 1 μM ([2]; 1 μM inhibitor): B (B indicates 1.25-1.39 fold); CD25 staining CD3/CD28 0.3 μM ([4]; 0.3 μM inhibitor): B (B indicates 1.25-1.39 fold); CD25 staining CD3/CD28 1 μM ([4]; 1 μM inhibitor): B (B indicates 1.25-1.39 fold); IC50 [5, 13]: 1 to 5 nM; IC50 [6, 13]: 1 to 5 nM; IC50 ([8]; 0.5 nM Cbl-b final concentration (High), read-out: Cbl-b activity IC50 (High)): 2 to 5 nM; IC50 ([8]; read-out: IC50 values in the Cbl-b inhibition assay of Biological Example 1): 2 to 5 nM |
| Cn1cnnc1C[C@]1(c2cccc(N3Cc4c(cc(CN[C@H]5CCC(F)(F)C5)cc4C(F)(F)F)C3=O)c2)C[C@H](C#N)C1 [Compound 20, (1R3r)-3-(3-(6-((((S)-3,3-difluorocyclopentyl)amino)methyl)-1-oxo-4-(trifluoromethyl)isoindolin-2-yl)phenyl)-3-((4-methyl-4H-1,2,4-triazol-3-yl)methyl)cyclobutane-1-carbonitrile] | > 1.39 | > 1.39 | > 1.15 | > 1.15 | A (A indicates >15 fold) | A (A indicates >15 fold) | A (A indicates >0.66 fold) | A (A indicates >0.66 fold) | > 20 | > 20 | > 0.85 | > 0.85 | A (A indicates >15 fold) | A (A indicates >15 fold) | A (A indicates >0.66 fold) | A (A indicates >0.66 fold) | < 1 | < 1 | < 1 |  |
| Cn1cnnc1C[C@]1(c2cccc(N3Cc4c(cc(CN[C@@H]5CCC(F)(F)C5)cc4C(F)(F)F)C3=O)c2)C[C@H](C#N)C1 [Compound 21, (1R,3r)-3-(3-(6-((((R)-3,3-difluorocyclopentyl)amino)methyl)-1-oxo-4-(trifluoromethyl)isoindolin-2-yl)phenyl)-3-((4-methyl-4H-1,2,4-triazol-3-yl)methyl)cyclobutane-1-carbonitrile] | > 1.39 | > 1.39 | > 1.15 | > 1.15 | A (A indicates >15 fold) | A (A indicates >15 fold) | A (A indicates >0.66 fold) | A (A indicates >0.66 fold) | > 20 | > 20 | > 0.85 | > 0.85 | A (A indicates >15 fold) | A (A indicates >15 fold) | A (A indicates >0.66 fold) | A (A indicates >0.66 fold) | < 1 | < 1 | < 1 |  |
| C[C@@H]1CN(Cc2cc(C(=O)Nc3cccc([C@]4(Cc5nncn5C)C[C@@H](C#N)C4)c3)nc(C3CC3)c2)CCO1 [Compound 56, N-(3-((1r,3R)-3-cyano-1-((4-methyl-4H-1,2,4-triazol-3-yl)methyl)cyclobutyl)phenyl)-6-cyclopropyl-4-(((R)-2-methylmorpholino)methyl)picolinamide] | ≤ 1.24 | ≤ 1.24 | 1 to 1.15 | 1 to 1.15 | A (A indicates >15 fold) | A (A indicates >15 fold) | A (A indicates >0.66 fold) | A (A indicates >0.66 fold) | 15 to 20 | > 20 | 0.4 to 0.85 | 0.4 to 0.85 | A (A indicates >15 fold) | A (A indicates >15 fold) | A (A indicates >0.66 fold) | A (A indicates >0.66 fold) | < 1 | < 1 | < 1 |  |
